The numbers were not newly measured in publication PMC5501742 (Cancer discovery, 2017), which cites them from elsewhere.

For the series the following is noted: cited from earlier work.

Turning to `Nc1cc(C(F)(F)F)c(-c2cc(N3CCOCC3)nc(N3CCOCC3)n2)cn1` [Buparlisib], the “frequent treatment-related AEs” value is “rash, hyperglycemia, diarrhea, and mucositis”.
